Experimental data reported in ChEMBL document CHEMBL1166009, “A novel and one-pot synthesis of new 1-tosyl pyrrol-2-one derivatives and analysis of carbonic anhydrase inhibitory potencies” (Bioorg Med Chem, 2010).

What was measured:
[1] = molecular target: T1, Carbonic anhydrase 1 (Homo sapiens, UniProt P00915)
Description: Inhibition of esterase activity of human carbonic anhydrase 1 by Lineweaver-Burke plot analysis

[2] = molecular target: T1, Carbonic anhydrase 1; assay: Inhibition of esterase activity of human carbonic anhydrase 1 by spectrophotometry; details: read-out: I50
[3] = molecular target: T2, Carbonic anhydrase 2 (Homo sapiens, UniProt P00918)
Description: Inhibition of esterase activity of human carbonic anhydrase 2 by Lineweaver-Burke plot analysis

[4] = molecular target: T2, Carbonic anhydrase 2; assay: Inhibition of esterase activity of human carbonic anhydrase 2 by spectrophotometry; details: read-out: I50

T1 sequence (P00915 2-261 limits assumed): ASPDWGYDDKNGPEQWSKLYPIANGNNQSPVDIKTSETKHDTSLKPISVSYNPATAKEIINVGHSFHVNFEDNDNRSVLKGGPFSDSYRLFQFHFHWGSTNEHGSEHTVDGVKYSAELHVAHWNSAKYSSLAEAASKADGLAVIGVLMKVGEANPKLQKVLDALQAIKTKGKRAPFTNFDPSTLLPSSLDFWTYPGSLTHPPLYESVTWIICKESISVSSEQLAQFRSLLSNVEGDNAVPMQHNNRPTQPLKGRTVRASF

Ki [1]: 42.4 µM
IC50 [2]: 23.1 µM
Ki [3]: 37.5 µM
IC50 [4]: 14.3 µM
Structure (SMILES): Cc1ccc(S(=O)(=O)n2cccc2)cc1
